This note sets out measurements from patent US20240076347A1, “METHODS FOR PREVENTING FUNGAL INFECTIONS” (Cidara Therapeutics, Inc., priority 2016, published 2024).

Test [1] deals with Aspergillus fumigatus strain AF293. Nature of the test: Murine model of pulmonary aspergillosis (Example 16), survival and lung burden. It is filed as in vivo. The conditions noted are these: for Mean Survival / Median Survival / survival time post infection, range / mice that survived to the end of the study: Day −1; for Group Geometric mean / Log10 Group Geometric mean / Log10 reduction from vehicle control: terminal lung burden; for mice that survived to the end of the study: 6 mice per group, 10 days. As for the experimental part: Animal strain and housing. Mice used in these studies were supplied by Charles River (Margate UK) and were specific pathogen free. The strain of mice used was ICR (also known as CD1 Mice) which is a well characterized outbred murine strain. Male mice were 11-15 g on receipt and allowed to acclimatize for at least 7 days.
Immunosuppression. Mice were immunosuppressed on Day −4 with 150 mg/kg cyclophosphamide administered intraperitoneally (IP), and on Day −1 with 150 mg/kg cyclophosphamide IP and 175 mg/kg cortisone acetate administered subcutaneously (SC). To prevent bacterial infection due to the immunosuppression mice were given once daily 50 mg/kg ceftazidime.
Preparation of Organism and Infection. A. fumigatus strain AF293 inoculum was prepared from spore cultures grown on Sabouraud Dextrose agar (SAB) containing 50 μg/mL chloramphenicol (SABC) in vented tissue culture flasks. Following incubation for 7-10 days at 30° C., spore cultures were washed in sterile phosphate buffered saline (PBS) containing 0.05% Tween 80. Spore count was determined using a haemocytometer and spores were diluted in PBS to ˜6.9×10^6 CFU/mL. Inoculum concentration was confirmed by quantitative culture onto SABC agar.
Neutropenic mice lungs were infected with 0.04 mL (0.02 mL/nare) of ˜4.17×10^6 CFU/mL (˜1.67×10^5 CFU/mouse) of A. fumigatus AF293 by intranasal (IN) instillation under temporary 2.5% isoflurane induced anesthesia.
Preparation of Test Articles. Micafungin (Mycamine, Astellas) was provided as a 50 mg vial (Lot 02323002, expiry 08/2017) and was prepared as per manufacturer's instructions by adding 5 mL saline for injection (SFI) directly into the vial to make up a 10 mg/mL stock solution. This solution was then diluted further in SFI to a working concentration of 0.5 mg/mL. […] It was prepared fresh once and stored at 4° C. until required.
Posaconazole (Noxafil 40 mg/mL oral suspension, Merck Sharp & Dohme Limited) was provided as a 40 mg/mL oral suspension (Lot N00801, expiry 04/2019). This suspension was then diluted further in water for infection (WFI) to a working concentration of 0.2 and 1 mg/mL. The suspension was administered orally (PO) at 10 mL/kg for 2 and 10 mg/kg doses respectively, was prepared fresh once and stored at 4° C. until required.
Test article CD101 stock was prepared at 6 mg/mL in 10% DMSO/1% Tween 20 diluent. A clear non particulate solution was obtained following gentle mixing. […] All doses were administered IP at 10 mL/kg. The study doses were kept at 4° C. until required.
Treatment. For this study, treatments were initiated on Day 1 pre infection according to treatment groups outlined in Table 22. A total of 36 mice (6/treatment group) were used in the study.
Endpoints. The primary endpoint for this study was survival within agreed ethical limits (>20% weight loss, severe hypothermia <34° C., inability to reach food or drink, severe hunching). Mice were monitored by daily weight measurements with observations as frequently as clinical condition required.
Mice presenting with severe clinical deterioration were humanely euthanized using an overdose of pentobarbitone administered by IP injection following clinical assessment and the time of death was recorded. Animal carcasses were stored at −20° C. before quantitative assessment of burden.
Ten days post infection all surviving animals were weighed and had their clinical condition assessed prior to being euthanized. Final survival numbers were recorded and analysed as described below and carcasses frozen at −20° C. prior to further processing.
Lung burden. A secondary endpoint for the study was terminal lung tissue burden. Immediately following confirmation of death, carcasses were frozen at −20° C. prior to tissue dissection and processing. The frozen carcasses were thawed at room temperature, the lungs removed and placed into pre-weighed bead-beating tubes containing 2 mL of PBS and subjected to mechanical disruption. […]

Test [2] relates to A. fumigatus AF293. Nature of the test: Pulmonary aspergillosis in neutropenic ICR mice (Examples 14, 15), prophylaxis, survival. Type of test: in vivo, Aspergillus fumigatus. The method, then:
Pulmonary aspergillosis: ICR mice (10/grp) were made neutropenic by cyclophosphamide on Day −4 (150 mg/kg), and CPM/cortisone on Day −1 (150/175 mg/kg). Intranasal infection with A. fumigatus AF293 (10^5 CFU/mouse) on Day 0. Prophylaxis CD101 as a single dose (IP; 5, 10, 20 mg/kg) or posaconazole (PO; 2 and 10 mg/kg) 1 day prior to infection. Survival monitored for 10 days.
Pulmonary aspergillosis: ICR mice (10/grp) were made neutropenic by cyclophosphamide on Day −4 (150 mg/kg), and cyclophosphamide/cortisone was given on Day −1 (150/175 mg/kg). Intranasal challenge with A. fumigatus AF293 (10^5 CFU/mouse) was initiated on Day 0 and prophylaxis with CD101 as a single dose (IP; 5, 10, 20 mg/kg) or posaconazole (PO; 2 and 10 mg/kg) was started 1 day prior to infection. Survival was monitored for 10 days.

“And” between values parts separate entries of the source, which are not always exact repeats. Identical values can stand only once. Numbered stars: 1 amine (or outer) side, 2 acyl side, 3 side chain; on linkers, the order of the positions; unused ones are H or OH. Bridge positions count the residues as written; N and C are the ends. Square brackets hold non-standard residues; d marks the D form. Peptide text beside a SMILES is read from it. * marks the point of attachment. ξ: configuration not given here. Orn(4R-OH,5R-OCH2CH2NMe3+) = C[N+](C)(C)CCO[C@@H](N[*:3])[C@H](O)C[C@H](N[*:1])C(=O)[*:2]; hTyr(3S-OH,4S-OH,3'-OSO3H) = N[C@H](C(=O)O)[C@H](O)[C@@H](O)c1ccc(O)c(OS(=O)(=O)O)c1; pTerphenylCO(4''-OnC5H11) = CCCCCOc1ccc(-c2ccc(-c3ccc(C(=O)*)cc3)cc2)cc1; Orn(4R-OH,5R-OH) = O=C([C@H](C[C@@H](O)[C@@H](O)N[*:3])N[*:1])[*:2]; hTyr(3S-OH,4S-OH) = N[C@H](C(=O)O)[C@H](O)[C@@H](O)c1ccc(O)cc1; Pro(3S-OH,4S-Me) = C[C@H]1CN[C@H](C(=O)O)[C@H]1O; X2 = CCCCCOc1ccc(-c2cc(-c3ccc(C(=O)*)cc3)no2)cc1; Gln(3R-OH) = NC(=O)C[C@@H](O)[C@H](N)C(=O)O; X1 = C[C@H]1CN([*:1])C(C(=O)[*:2])C1O; Hyp = O=C(O)[C@@H]1C[C@@H](O)CN1; ξT = CC(O)C(N)C(=O)O

For the compound `CCCCCOc1ccc(-c2cc(-c3ccc(C(=O)N[C@H]4C[C@@H](O)[C@@H](O)NC(=O)[C@@H]5[C@@H](O)[C@@H](C)CN5C(=O)[C@H]([C@H](O)CC(N)=O)NC(=O)[C@H]([C@H](O)[C@@H](O)c5ccc(O)c(OS(=O)(=O)O)c5)NC(=O)[C@@H]5C[C@@H](O)CN5C(=O)[C@H]([C@@H](C)O)NC4=O)cc3)no2)cc1` [Micafungin, micafungin, reference compound] (X2-[Orn(4R-OH,5R-OH)]T[Hyp][hTyr(3S-OH,4S-OH,3'-OSO3H)][Gln(3R-OH)][Pro(3S-OH,4S-Me)]; lactam 1-C), in test [1] (5 mg/kg IP once), the “Mean Survival” value was 92 h and 92.0 h; the “Median Survival” value was 80 h and 80.0 h; the “survival time post infection, range” value fell in the range of 71 to 162 h. Besides, the “survival vs vehicle (conclusion)” value in test [1] (5 mg/kg once one day pre-infection) is recorded as “did not show any improvement in survival”. In addition, in test [1] (5 mg/kg IP Day −1), the “Group Geometric mean” value is recorded as 6.61 × 10^3 CFU/g, the “Log10 Group Geometric mean” value is recorded as 3.82 CFU/g and the “Log10 reduction from vehicle control” value is on record as 0.35 CFU/g. Besides, the survival rate entry in test [2] (5 mg/kg (human-equivalent 100 mg)) is recorded as “no survivors”.
For `CCCCCOc1ccc(-c2ccc(-c3ccc(C(=O)N[C@H]4C[C@@H](O)[C@@H](OCC[N+](C)(C)C)NC(=O)C5C(O)[C@@H](C)CN5C(=O)[C@H]([C@@H](C)O)NC(=O)[C@H]([C@H](O)[C@@H](O)c5ccc(O)cc5)NC(=O)[C@@H]5C[C@@H](O)CN5C(=O)C(C(C)O)NC4=O)cc3)cc2)cc1` (stereo partly drawn) [CD101] ({pTerphenylCO(4''-OnC5H11)}-[Orn(4R-OH,5R-OCH2CH2NMe3+)][ξT][Hyp][hTyr(3S-OH,4S-OH)]T[X1]; lactam 1-C), in test [1] (20 mg/kg IP once), the “Mean Survival” value came out at 130.4 h; the “Median Survival” value worked out at 74.7 h; the “survival time post infection, range” value fell in the range of 70 to 240 h; the “mice that survived to the end of the study” value is on record as “Two”. Further, in test [1] (60 mg/kg IP once), the “Mean Survival” value was found to be 122.7 h; the “Median Survival” value is 88.7 h; the “survival time post infection, range” value is 73-240; the “mice that survived to the end of the study” value is “A single mouse”. For the same compound, in test [1] (20 and 60 mg/kg once one day pre-infection), the “survival vs vehicle (conclusion)” value is “slight increase in survival, which was statistically longer than the vehicle treatment”. In test [1] (20 mg/kg IP Day −1), the “Group Geometric mean” value is listed as 4.37 × 10^3 CFU/g, the “Log10 Group Geometric mean” value is recorded as 3.64 CFU/g and the “Log10 reduction from vehicle control” value worked out at 0.53 CFU/g. In test [1] (60 mg/kg IP Day −1), the “Group Geometric mean” value is 1.38 × 10^4 CFU/g, the “Log10 Group Geometric mean” value came to 4.14 CFU/g and the “Log10 reduction from vehicle control” value stood at 0.03 CFU/g. Further, in test [2] (20 mg/kg IP one day prior to infection (human 400 mg AUC equivalent)), the survival entry was “increase in survival relative to control”. The survival rate in test [2] (20 mg/kg IP one day prior to infection, 10 days) is listed as 30%. The survival rate entry in test [2] (single dose IP (5, 10, 20 mg/kg) one day prior to infection) was “dose-dependent increase in survival rate”.
